From ChEMBL document CHEMBL2177017, “Vascular endothelial growth factor (VEGF) receptors: drugs and new inhibitors” (J Med Chem, 2012) come the findings set out here.

Each structure is given as a SMILES string.

One assay has as its system HepG2. Description: Antitumor activity against human HepG2 cells xenografted mouse assessed as inhibition of tumor growth at 100 mg/kg qd for 18 days. Format: functional. As to conditions: HepG2, 432 h, read-out: TGI.
The target in assay [1] is Vascular endothelial growth factor receptor 2 (Homo sapiens, UniProt P35968). Description: Inhibition of VEGFR2.
Chain of Vascular endothelial growth factor receptor 2 (P35968 whole entry): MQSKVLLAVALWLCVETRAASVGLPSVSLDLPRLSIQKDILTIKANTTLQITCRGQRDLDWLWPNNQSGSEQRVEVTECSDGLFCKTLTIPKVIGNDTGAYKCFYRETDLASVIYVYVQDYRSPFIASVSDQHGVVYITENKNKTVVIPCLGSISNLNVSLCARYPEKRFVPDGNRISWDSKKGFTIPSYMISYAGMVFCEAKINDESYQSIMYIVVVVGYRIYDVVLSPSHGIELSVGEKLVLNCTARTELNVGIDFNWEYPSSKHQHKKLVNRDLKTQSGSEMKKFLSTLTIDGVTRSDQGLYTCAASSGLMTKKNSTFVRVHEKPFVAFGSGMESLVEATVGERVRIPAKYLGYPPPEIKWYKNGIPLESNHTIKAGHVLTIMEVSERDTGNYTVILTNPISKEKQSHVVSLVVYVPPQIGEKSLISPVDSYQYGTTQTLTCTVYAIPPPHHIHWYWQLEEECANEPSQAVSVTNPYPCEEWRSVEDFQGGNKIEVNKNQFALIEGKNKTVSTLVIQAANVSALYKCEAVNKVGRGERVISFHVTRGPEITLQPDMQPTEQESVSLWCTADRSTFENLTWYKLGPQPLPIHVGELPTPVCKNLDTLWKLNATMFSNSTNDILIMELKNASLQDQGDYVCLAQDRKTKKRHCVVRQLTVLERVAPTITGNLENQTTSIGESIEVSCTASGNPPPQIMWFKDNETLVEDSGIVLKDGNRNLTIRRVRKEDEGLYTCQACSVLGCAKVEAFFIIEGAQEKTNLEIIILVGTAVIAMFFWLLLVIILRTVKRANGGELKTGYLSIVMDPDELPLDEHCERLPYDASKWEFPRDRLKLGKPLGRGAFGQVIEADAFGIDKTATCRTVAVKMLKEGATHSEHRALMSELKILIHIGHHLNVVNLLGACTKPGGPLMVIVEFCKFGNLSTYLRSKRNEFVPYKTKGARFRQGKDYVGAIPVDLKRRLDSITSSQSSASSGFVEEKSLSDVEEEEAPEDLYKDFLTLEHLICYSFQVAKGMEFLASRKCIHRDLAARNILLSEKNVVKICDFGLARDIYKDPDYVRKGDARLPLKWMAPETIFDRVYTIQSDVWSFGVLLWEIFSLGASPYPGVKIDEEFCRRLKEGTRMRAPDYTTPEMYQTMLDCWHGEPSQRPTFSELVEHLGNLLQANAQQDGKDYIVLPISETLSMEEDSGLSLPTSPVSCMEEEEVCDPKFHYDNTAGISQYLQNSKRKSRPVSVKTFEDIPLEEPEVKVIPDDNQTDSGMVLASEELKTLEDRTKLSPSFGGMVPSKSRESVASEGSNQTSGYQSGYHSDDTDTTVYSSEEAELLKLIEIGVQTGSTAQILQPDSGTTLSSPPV
In another assay the test system is SW-620. Description: Antitumor activity against human SW620 cells xenografted mouse assessed as inhibition of tumor growth at 100 mg/kg qd for 18 days. Format: functional. As to conditions: SW-620, 432 h, read-out: TGI.
The subject of a further assay is HUVEC. Nature of the assay: Antiangiogenic activity in HUVEC assessed as inhibition of tube formation at 10 uM. The format is functional. The following applies: Homo sapiens.
The species named for another assay is Danio rerio. Nature of the assay: Antiangiogenic activity in zebrafish embryos assessed as inhibition of intersegmental vessel growth at 2.5 uM. The format is functional, Embryo.
In assay [2] the target is Vascular endothelial growth factor receptor 3 (Homo sapiens, UniProt P35916). Nature of the assay: Inhibition of VEGFR3.
Chain of Vascular endothelial growth factor receptor 3 (P35916 whole entry): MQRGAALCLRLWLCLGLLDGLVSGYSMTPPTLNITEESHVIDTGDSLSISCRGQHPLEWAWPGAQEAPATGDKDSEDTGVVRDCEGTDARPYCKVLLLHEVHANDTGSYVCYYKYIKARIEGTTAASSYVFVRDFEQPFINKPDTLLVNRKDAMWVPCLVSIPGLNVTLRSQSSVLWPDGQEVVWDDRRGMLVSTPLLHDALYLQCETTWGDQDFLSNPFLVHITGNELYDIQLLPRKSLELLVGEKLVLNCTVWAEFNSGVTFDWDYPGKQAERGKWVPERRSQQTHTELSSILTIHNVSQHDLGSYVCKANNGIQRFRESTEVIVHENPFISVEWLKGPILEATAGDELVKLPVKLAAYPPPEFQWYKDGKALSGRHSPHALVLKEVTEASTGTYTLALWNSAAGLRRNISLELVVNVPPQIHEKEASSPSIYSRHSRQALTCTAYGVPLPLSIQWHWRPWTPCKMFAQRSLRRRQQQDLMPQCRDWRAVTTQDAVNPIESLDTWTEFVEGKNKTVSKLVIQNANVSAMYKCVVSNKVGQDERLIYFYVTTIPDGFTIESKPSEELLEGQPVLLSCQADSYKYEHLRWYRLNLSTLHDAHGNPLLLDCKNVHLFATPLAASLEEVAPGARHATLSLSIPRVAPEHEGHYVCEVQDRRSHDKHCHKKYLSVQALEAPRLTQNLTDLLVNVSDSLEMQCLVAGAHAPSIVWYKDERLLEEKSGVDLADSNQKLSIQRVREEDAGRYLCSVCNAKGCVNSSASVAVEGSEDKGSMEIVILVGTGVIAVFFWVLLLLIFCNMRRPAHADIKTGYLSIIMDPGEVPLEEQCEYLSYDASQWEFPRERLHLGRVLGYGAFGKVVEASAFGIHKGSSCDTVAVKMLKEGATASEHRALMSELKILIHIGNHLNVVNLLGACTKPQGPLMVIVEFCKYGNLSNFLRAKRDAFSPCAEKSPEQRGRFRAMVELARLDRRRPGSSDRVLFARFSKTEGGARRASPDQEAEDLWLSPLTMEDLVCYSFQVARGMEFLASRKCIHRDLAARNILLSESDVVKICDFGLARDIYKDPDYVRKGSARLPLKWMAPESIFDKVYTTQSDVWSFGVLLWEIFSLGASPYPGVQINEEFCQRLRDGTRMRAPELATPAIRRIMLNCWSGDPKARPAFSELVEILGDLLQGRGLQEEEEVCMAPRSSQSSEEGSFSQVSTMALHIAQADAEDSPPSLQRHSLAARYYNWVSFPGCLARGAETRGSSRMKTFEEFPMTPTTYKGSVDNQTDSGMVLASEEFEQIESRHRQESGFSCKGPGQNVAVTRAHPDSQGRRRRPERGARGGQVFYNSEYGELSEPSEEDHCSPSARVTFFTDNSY
For assay [3], the target named is Fibroblast growth factor receptor 2 (Homo sapiens, UniProt P21802). Description: Inhibition of FGFR2.
Chain of Fibroblast growth factor receptor 2 (P21802 whole entry): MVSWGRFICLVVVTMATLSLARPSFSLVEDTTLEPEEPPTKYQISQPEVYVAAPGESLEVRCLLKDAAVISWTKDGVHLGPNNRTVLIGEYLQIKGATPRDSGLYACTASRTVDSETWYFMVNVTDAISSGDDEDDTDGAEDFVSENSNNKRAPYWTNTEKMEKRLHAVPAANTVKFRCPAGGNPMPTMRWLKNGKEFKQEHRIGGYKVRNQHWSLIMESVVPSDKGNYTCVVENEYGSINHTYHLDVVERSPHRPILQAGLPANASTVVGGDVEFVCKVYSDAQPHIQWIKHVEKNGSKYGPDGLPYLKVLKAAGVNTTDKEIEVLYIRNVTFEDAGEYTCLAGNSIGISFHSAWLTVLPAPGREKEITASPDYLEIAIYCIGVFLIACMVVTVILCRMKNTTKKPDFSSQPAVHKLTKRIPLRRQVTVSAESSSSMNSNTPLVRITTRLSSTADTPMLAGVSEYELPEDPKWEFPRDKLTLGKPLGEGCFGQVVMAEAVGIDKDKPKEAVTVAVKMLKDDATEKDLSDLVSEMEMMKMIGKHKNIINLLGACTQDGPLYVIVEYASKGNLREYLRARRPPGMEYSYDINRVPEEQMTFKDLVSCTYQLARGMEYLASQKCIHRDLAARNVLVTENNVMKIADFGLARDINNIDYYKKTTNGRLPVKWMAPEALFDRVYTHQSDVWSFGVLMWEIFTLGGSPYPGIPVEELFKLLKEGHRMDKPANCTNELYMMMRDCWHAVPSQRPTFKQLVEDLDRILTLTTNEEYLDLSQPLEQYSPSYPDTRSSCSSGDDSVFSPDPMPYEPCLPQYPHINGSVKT
In assay [4] the target is Fibroblast growth factor receptor 1 (Homo sapiens, UniProt P11362). Nature of the assay: Inhibition of FGFR1.
For assay [5], the target named is Vascular endothelial growth factor receptor 1 (Homo sapiens, UniProt P17948). Description: Inhibition of VEGFR1.
In assay [6] the target is Platelet-derived growth factor receptor beta (Homo sapiens, UniProt P09619). Description: Inhibition of PDGFRbeta.
For assay [7], the target named is Mast/stem cell growth factor receptor Kit (Homo sapiens, UniProt P10721). Description: Inhibition of c-Kit.
Chain of Mast/stem cell growth factor receptor Kit (P10721 whole entry): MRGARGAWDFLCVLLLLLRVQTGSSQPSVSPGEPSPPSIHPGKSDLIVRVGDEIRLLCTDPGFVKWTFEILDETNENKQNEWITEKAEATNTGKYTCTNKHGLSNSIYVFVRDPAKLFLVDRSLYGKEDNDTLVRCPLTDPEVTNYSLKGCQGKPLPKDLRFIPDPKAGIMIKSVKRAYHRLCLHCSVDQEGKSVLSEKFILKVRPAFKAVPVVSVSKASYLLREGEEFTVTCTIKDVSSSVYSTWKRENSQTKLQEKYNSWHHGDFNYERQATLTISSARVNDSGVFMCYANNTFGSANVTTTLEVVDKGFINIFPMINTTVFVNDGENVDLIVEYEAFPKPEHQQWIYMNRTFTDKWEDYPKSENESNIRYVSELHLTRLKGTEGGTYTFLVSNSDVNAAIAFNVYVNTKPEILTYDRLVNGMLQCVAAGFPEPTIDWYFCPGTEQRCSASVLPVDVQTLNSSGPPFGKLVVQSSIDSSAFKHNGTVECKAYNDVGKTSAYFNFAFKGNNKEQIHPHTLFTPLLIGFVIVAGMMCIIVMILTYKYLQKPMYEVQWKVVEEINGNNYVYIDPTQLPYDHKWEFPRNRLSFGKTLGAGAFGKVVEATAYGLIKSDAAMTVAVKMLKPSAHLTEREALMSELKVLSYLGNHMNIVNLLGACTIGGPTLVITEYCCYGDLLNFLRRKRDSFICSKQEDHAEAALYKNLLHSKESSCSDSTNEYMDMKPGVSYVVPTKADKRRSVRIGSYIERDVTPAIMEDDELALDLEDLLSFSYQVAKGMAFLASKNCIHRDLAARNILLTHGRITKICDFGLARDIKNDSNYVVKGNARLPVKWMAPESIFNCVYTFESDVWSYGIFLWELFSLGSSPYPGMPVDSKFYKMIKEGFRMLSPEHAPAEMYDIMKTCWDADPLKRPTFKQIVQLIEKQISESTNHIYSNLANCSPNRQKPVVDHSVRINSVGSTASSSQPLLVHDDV
A short description of assay [8]: Inhibition of FGFRbeta.
Another assay relates to Mus musculus. Nature of the assay: Antitumor activity against human tumor xenografted athymic mouse assessed as inhibition of tumor growth. The format is functional.
The target of assay [9] is Tyrosine-protein kinase Lck (Homo sapiens, UniProt P06239). Description: Inhibition of LCK.
Chain of Tyrosine-protein kinase Lck (P06239 whole entry): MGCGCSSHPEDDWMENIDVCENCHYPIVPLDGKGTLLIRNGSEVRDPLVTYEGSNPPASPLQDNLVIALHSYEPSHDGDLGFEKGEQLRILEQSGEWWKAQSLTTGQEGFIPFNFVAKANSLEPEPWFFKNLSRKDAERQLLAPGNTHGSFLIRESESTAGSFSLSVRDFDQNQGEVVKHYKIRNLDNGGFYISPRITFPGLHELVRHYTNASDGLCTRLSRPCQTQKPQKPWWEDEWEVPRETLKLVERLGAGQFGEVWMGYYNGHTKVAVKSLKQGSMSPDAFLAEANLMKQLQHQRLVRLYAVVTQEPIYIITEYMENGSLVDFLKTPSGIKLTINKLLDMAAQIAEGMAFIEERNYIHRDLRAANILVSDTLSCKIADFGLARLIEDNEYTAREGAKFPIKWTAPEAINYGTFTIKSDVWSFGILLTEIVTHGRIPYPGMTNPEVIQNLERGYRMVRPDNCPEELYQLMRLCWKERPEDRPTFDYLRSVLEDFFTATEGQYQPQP
The target in assay [10] is RAF proto-oncogene serine/threonine-protein kinase (Homo sapiens, UniProt P04049). Nature of the assay: Inhibition of c-Raf.

Turning to `COc1cc2ncnc(Sc3nnc(C)s3)c2cc1OC`, the inhibition in vivo at 100 mg/kg in the assay on HepG2 was determined as 63%; in the assay with SW-620, 72%. The same compound returned a half-inhibitory concentration (IC50) in assay [1] of 32 nM. Also, the inhibition at 10 µM in the assay on HUVEC is 98%. In addition, the “inhibition (INH)” value in the assay listed under Danio rerio is recorded as 80%.
Consider `CNC(=O)c1cccc2cc(Oc3ccnc4cc(OCC5(N)CC5)c(OC)cc34)ccc12`, for which the IC50 in assay [2] came to 10 nM; in [1] it was 25 nM; in [3] it was 82.5 nM; in [4] it was 17.5 nM; in assay [5] it was 7 nM.
With `COc1cc2c(Oc3ccc(Nc4ccc(C(C)(C)C)cc4)cc3)ccnc2cc1OCCNCCO`, the IC50 in [6], in assay [1], in assay [3] and in assay [7] was 69 nM in each case.
Turning to `CCN1CCN(Cc2ccc(-c3cc4c(N[C@H](C)c5ccccc5)ncnc4[nH]3)cc2)CC1` [AEE-788], the concentration for half-maximal inhibition (IC50) in [1] is 77 nM; in assay [5] it was 59 nM.
With `COc1cc2nccc(Oc3ccc(NC(=O)NC4CC4)c(Cl)c3)c2cc1C(N)=O` [LENVATINIB], inhibition in assay [2] was half-maximal at 5.2 nM (IC50). In other words, the single-digit nanomolar range.
Consider `NC(=O)c1c(OCc2c(F)cc(Br)cc2F)nsc1NC(=O)NCCCCN1CCCC1` [OSI-632], for which the IC50 in assay [8] came to 9 nM. In addition, in the assay on Mus musculus, the TGI is 85%.
Take `O=C(Nc1ccc(OC(F)(F)F)cc1)c1sccc1NCc1ccnc2ccccc12` [OSI-930]: the IC50 in assay [9] turned out to be 22 nM; in assay [10], 41 nM; in assay [7], 10 nM.
`CNC(=O)c1cc(COc2nnc(Nc3ccc(Cl)cc3)c3ccoc23)ccn1` [TELATINIB] displayed an IC50 in [2] of 4 nM.
